Where a name gives a salt, the structure may show the parent alone. Read-outs that look alike come from different tables or passages of the source.
Assays:
[1] = Solubility of AQ2CA without cyclodextrins (UV-Vis); format: physicochemical; details: 25 °C, thermodynamic from solid
Description: (§1) Anthraquinone-2-carboxylic acid (AQ2CA) is a poorly water-soluble drug (SAQ2CA in water = 3.98 × 10^−5 M). […] An improvement in the aqueous solubility of AQ2CA would improve the biological availability of the drug. Such a drug solubilization effect was achieved via complexation using appropriate CD derivatives. The phase solubility method developed by Higuchi and Connors was employed to quantify the solubilization ability of cyclodextrins. The solubility values of AQ2CA in water, BR buffer at pH 7.4 (pH corresponding to the physiological conditions), and BR buffer at pH 3.0, with the addition of CDs was determined. The pH values characteristic for bodily fluids (pH 7.4) and for gastric juices (pH 3) were chosen for these measurements. […] According to the Higuchi and Connors classification, the phase solubility diagrams for anthraquinone-2-carboxylic acid with various cyclodextrin concentrations can be classified as AL type.
(§2) Solubility studies of anthraquinone-2-carboxylic acid with three different cyclodextrins were carried out according to the Higuchi and Connors procedure. The solutions of cyclodextrin in water and Britton–Robinson buffers (pH 7.4 and 5.5) were prepared in a concentration range of 0–3 mM. A constant amount of AQ2CA (3 mM) that exceeded its solubility was added into the cyclodextrin solution. Molar ratios of AQ2CA/CD were 1:0, 1:0.2, 1:0.4, 1:0.6, 1:0.8, and 1:1. Three samples of each molar ratio were prepared. The suspensions were shaken for 24 h at 25 °C, after which equilibrium was reached. After 24 h, the concentration of the dissolved drug was monitored by UV-Vis spectroscopy and plateaued; thus, the maximum dissolved drug was achieved. Subsequently, the samples were filtered using a 0.45 µm filter and appropriately diluted. The aliquots of solutions were assayed for AQ2CA again, by UV-Vis spectroscopy, in the 200–600 nm range with a maximum absorbance value for AQ2CA at 335 nm. […] The association constants of the inclusion complexes were determined using the following equation:(1) K1:1=Slope/S0(1−Slope) where K1:1 is the association constant and S0 is the solubility of AQ2CA in the absence of cyclodextrin. The slope was measured by UV-Vis spectroscopy from the initial straight-line part of the AQ2CA concentration vs. CD concentration plot. The uncertainty was determined as the standard deviation of the three values of the association constants obtained from three different repetitions of the given system.

[2] = cited from earlier work
[3] = Phase solubility diagrams (Higuchi and Connors) of AQ2CA with cyclodextrins; format: physicochemical; details: for K1:1 (association constant, AQ2CA–cyclodextrin): phase solubility diagram, 25 °C; for Increase in solubility of AQ2CA (in words): pH 3.0
Description: as §1
The association constant of the AQ2CA–cyclodextrin complex (1:1) was calculated from the linear plot of the phase solubility diagrams using Equation (1). The lines are started at the point of initial drug solubility, meaning, i.e., without the addition of cyclodextrin. The values of K1:1, as well as the solubility increase and correlation coefficients of the phase solubility diagrams, are presented in Table 1.
as §2, with “The solutions of cyclodextrin in water and Britton–Robinson buffers (pH 7.4 and 5.5) were prepared in a concentration range of 0–3 mM.” left out

[4] = Determination of pKa values of CD derivatives by UV-Vis spectroscopy; format: physicochemical; details: Britton–Robinson buffer, pH range 2.7 to 9.5, triazole linker
Description: Due to the fact that the triazole linker in CD derivatives contains a basic nitrogen atom that can be protonated at an acidic pH, we determined the value of pKa by UV-Vis spectroscopy. The spectra of βCDGAL, βCDLip, and βCDTriazol, at the pH range between 2.7 and 9.5, are presented on Figure 3. The dependence of the absorbance of the peak maximum at wavelengths in the range of 210–220 on the pH of the buffer is presented in the figures. According to the equation […] for equal concentrations of the protonated and deprotonated forms, pKa = pH; the pKa value, for all three derivatives containing the triazole linker, was determined to be 4.5.
The UV-Vis measurements were performed using an Agilent Technologies Cary 60 UV-Vis Spectrophotometer (Santa Clara, CA, USA). All UV-Vis spectra were measured using quartz cuvettes with a 1 cm optical path length. For pKa determination the 0.2 mg/mL concentration of βCDTriazole, βCDGAL or βCDLip in Britton–Robinson buffer were used.

| K1:1 (association constant, AQ2CA–cyclodextrin) ([3]; Britton–Robinson buffer pH 3.0) [M⁻¹] | K1:1 (association constant, AQ2CA–cyclodextrin) ([3]; Britton–Robinson buffer pH 7.4) [M⁻¹] | K1:1 (association constant, AQ2CA–cyclodextrin) ([3]; water) [M⁻¹] | pKa [4] | Compound | further results |
| --- | --- | --- | --- | --- | --- |
| – | – | – | – | O=C(O)c1ccc2c(c1)C(=O)c1ccccc1C2=O [AQ2CA, 9,10-dihydro-9,10-dioxo-2-anthracenecarboxylic acid] | solubility at 24 h ([1]; aqueous buffer, Britton–Robinson buffer pH 3.0, without CDs, read-out: Solubility of AQ2CA in Britton–Robinson buffer, pH 3.0): 1.43 µM; solubility at 24 h ([1]; aqueous buffer, Britton–Robinson buffer pH 3.0, read-out: Solubility in Britton–Robinson buffer, pH 3.0 without CDs): 0.36 µg/mL; solubility at 24 h ([1]; aqueous buffer, Britton–Robinson buffer pH 7.4, without CDs, read-out: Solubility of AQ2CA in Britton–Robinson buffer, pH 7.4): 1740 µM; solubility at 24 h ([1]; aqueous buffer, Britton–Robinson buffer pH 7.4, read-out: Solubility in Britton–Robinson buffer, pH 7.4 without CDs): 440 µg/mL; solubility at 24 h ([1]; water, without CDs, read-out: Solubility of AQ2CA in water): 39.8 µM; solubility at 24 h ([1]; water, water, read-out: Solubility in water without CDs): 10 µg/mL |
| – | – | – | – | COc1cccc2c1C(=O)c1c(O)c3c(c(O)c1C2=O)C[C@@](O)(C(C)=O)C[C@@H]3O[C@H]1C[C@H](N)[C@H](O)[C@H](C)O1 [DNR, daunorubicin] | pKa [2]: 7.48 |
| 1480 ± 180 | 350 ± 40 | 460 ± 45 | – | OC[C@H]1O[C@@H]2O[C@H]3[C@H](O)[C@@H](O)[C@@H](O[C@H]4[C@H](O)[C@@H](O)[C@@H](O[C@H]5[C@H](O)[C@@H](O)[C@@H](O[C@H]6[C@H](O)[C@@H](O)[C@@H](O[C@H]7[C@H](O)[C@@H](O)[C@@H](O[C@H]8[C@H](O)[C@@H](O)[C@@H](O[C@H]1[C@H](O)[C@H]2O)O[C@@H]8CO)O[C@@H]7CO)O[C@@H]6CO)O[C@@H]5CO)O[C@@H]4CO)O[C@@H]3CO [βCD, β-Cyclodextrin] | – |
| 2760 ± 110 | 1300 ± 60 | 840 ± 45 | 4.5 | O=C(N[C@H]1C(O)O[C@H](CO)[C@H](O)[C@@H]1O)OCc1cn(C[C@H]2O[C@@H]3O[C@H]4[C@H](O)[C@@H](O)[C@@H](O[C@H]5[C@H](O)[C@@H](O)[C@@H](O[C@H]6[C@H](O)[C@@H](O)[C@@H](O[C@H]7[C@H](O)[C@@H](O)[C@@H](O[C@H]8[C@H](O)[C@@H](O)[C@@H](O[C@H]9[C@H](O)[C@@H](O)[C@@H](O[C@H]2[C@H](O)[C@H]3O)O[C@@H]9CO)O[C@@H]8CO)O[C@@H]7CO)O[C@@H]6CO)O[C@@H]5CO)O[C@@H]4CO)nn1 (stereo partly drawn) [βCDGAL] | Increase in solubility of AQ2CA (in words) [3]: almost tenfold increase |
| 2520 ± 175 | 940 ± 25 | 800 ± 40 | 4.5 | O=C(CCCCC1CCSS1)OCc1cn(C[C@H]2O[C@@H]3O[C@H]4[C@H](O)[C@@H](O)[C@@H](O[C@H]5[C@H](O)[C@@H](O)[C@@H](O[C@H]6[C@H](O)[C@@H](O)[C@@H](O[C@H]7[C@H](O)[C@@H](O)[C@@H](O[C@H]8[C@H](O)[C@@H](O)[C@@H](O[C@H]9[C@H](O)[C@@H](O)[C@@H](O[C@H]2[C@H](O)[C@H]3O)O[C@@H]9CO)O[C@@H]8CO)O[C@@H]7CO)O[C@@H]6CO)O[C@@H]5CO)O[C@@H]4CO)nn1 (stereo partly drawn) [βCDLip] | Increase in solubility of AQ2CA (in words) [3]: almost tenfold increase |
| – | – | – | 4.5 | CCCc1cn(C[C@H]2O[C@@H]3O[C@H]4[C@H](O)[C@@H](O)[C@@H](O[C@H]5[C@H](O)[C@@H](O)[C@@H](O[C@H]6[C@H](O)[C@@H](O)[C@@H](O[C@H]7[C@H](O)[C@@H](O)[C@@H](O[C@H]8[C@H](O)[C@@H](O)[C@@H](O[C@H]9[C@H](O)[C@@H](O)[C@@H](O[C@H]2[C@H](O)[C@H]3O)O[C@@H]9CO)O[C@@H]8CO)O[C@@H]7CO)O[C@@H]6CO)O[C@@H]5CO)O[C@@H]4CO)nn1 [βCDTriazol] | – |
| 2450 ± 200 | – | 280 ± 30 | – | NC[C@H]1O[C@@H]2O[C@H]3[C@H](O)[C@@H](O)[C@@H](O[C@H]4[C@H](O)[C@@H](O)[C@@H](O[C@H]5[C@H](O)[C@@H](O)[C@@H](O[C@H]6[C@H](O)[C@@H](O)[C@@H](O[C@H]7[C@H](O)[C@@H](O)[C@@H](O[C@H]8[C@H](O)[C@@H](O)[C@@H](O[C@H]1[C@H](O)[C@H]2O)O[C@@H]8CO)O[C@@H]7CO)O[C@@H]6CO)O[C@@H]5CO)O[C@@H]4CO)O[C@@H]3CO [βCDamine, 6-monodeoxy-6-monoamino-β-cyclodextrin hydrochloride] | pKa ([2]; amine derivative CD): 8.84 |

From PMC8659250, “Adjusting the Structure of β-Cyclodextrin to Improve Complexation of Anthraquinone-Derived Drugs” (Molecules, 2021)
